Experimental data: US12590099B2, “Inhibitors of histone deacetylase useful for the treatment or prevention of HIV infection” (Merck Sharp & Dohme LLC, priority 2018, dated 2026)
Where two headings read alike, the source gives them in different places.

Key:
[1] = molecular target: T1, Recombinant human HDAC3/SMRT heterodimer (Homo sapiens, UniProt O15379); test: Human HDAC enzyme inhibitor Fluor-de-Lys assay, HDAC3/SMRT; assay type: biochemical
T1 construct: FLAG (C); made in house

KARN cells (Jurkat 2C4) = test: cells; assay type: cell-based; details: Homo sapiens, Jurkat
Summary of the method: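 Luminescence (Steady-Glo, 10 min, room temperature) measured next day in KARN Jurkat 2C4 cells given compounds at up to 40 μM final with 0.4% DMSO. Percent activation normalised to DMSO (0%) and 2 μM SAHA (100%), fitted by 4-parameter curve.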

[2] = read-out: Karn EC50 (nM) 0.1% NHS, 0.1% normal human serum
[3] = read-out: Karn EC50 (nM) 5% NHS, 5% normal human serum

T1 sequence (O15379 whole entry): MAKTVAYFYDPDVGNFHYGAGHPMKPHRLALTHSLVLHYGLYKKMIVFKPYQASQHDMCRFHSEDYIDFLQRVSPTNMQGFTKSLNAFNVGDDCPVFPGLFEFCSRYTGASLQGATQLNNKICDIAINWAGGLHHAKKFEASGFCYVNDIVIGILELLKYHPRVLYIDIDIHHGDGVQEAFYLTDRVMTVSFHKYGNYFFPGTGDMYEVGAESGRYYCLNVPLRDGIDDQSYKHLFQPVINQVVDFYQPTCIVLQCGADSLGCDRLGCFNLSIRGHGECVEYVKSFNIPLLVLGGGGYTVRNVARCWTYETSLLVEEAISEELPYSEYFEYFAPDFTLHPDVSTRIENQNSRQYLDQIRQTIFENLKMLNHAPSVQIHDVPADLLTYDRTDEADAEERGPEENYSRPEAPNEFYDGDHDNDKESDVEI
T1 sequence (Q9Y618 1-899 partner limits assumed): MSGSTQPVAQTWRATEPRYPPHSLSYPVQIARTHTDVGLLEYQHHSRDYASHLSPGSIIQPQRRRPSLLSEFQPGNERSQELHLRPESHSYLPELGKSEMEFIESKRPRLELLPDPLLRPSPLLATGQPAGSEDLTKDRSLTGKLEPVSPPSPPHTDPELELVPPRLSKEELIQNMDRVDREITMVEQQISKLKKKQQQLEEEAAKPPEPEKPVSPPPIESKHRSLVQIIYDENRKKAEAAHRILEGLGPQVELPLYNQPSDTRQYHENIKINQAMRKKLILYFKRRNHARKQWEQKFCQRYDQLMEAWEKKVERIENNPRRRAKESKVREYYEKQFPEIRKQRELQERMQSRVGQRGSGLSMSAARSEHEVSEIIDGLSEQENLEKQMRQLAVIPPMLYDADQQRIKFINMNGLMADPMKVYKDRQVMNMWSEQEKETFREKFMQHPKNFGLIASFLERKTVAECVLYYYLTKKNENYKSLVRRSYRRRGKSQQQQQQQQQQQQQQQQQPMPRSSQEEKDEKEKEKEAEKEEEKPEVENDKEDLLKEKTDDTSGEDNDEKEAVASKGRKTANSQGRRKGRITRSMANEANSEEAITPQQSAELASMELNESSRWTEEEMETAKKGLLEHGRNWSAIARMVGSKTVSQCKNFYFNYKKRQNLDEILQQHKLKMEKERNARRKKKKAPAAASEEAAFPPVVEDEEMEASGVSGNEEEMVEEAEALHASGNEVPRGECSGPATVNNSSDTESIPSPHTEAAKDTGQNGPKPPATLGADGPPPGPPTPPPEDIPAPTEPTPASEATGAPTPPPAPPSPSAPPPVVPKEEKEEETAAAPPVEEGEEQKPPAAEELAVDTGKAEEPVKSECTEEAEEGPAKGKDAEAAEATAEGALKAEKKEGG

Compound	IC50 [1] [µM]	EC50 (KARN cells (Jurkat 2C4); [2]) [nM]	EC50 (KARN cells (Jurkat 2C4); [3]) [nM]
CCN1CCC2(CC1)C[C@@H]2C(=O)N[C@@H](CCCCCC(=O)CC1CC1)c1ncc(-c2ccc(F)cc2)[nH]1 [Compound 201]	0.00806	359	403
CCC(=O)CCCCC[C@H](NC(=O)C1=NOC2(CCN(CC3CC3)CC2)C1)c1ncc(-c2cc3ccc(C)nc3cc2OC)[nH]1 [Compound 219]	0.00034	78	101
